What was measured:
[1] = Solubility in organic solvents: effect of tert-butyl substitution; assay type: physicochemical; settings: for Löslichkeitssteigerung um einen Faktor: relative to unsubstituted Rubicen (I)
From the text: Der Einfluß der Substitution mit tert.-Butylgruppen wurde an folgenden Systemen untersucht.

[2] = Absolute fluorescence quantum yield; assay type: physicochemical

## Di-tert.-butylrubicen
[1]; in n-Hexan bei Zimmertemperatur
  Löslichkeitssteigerung um einen Faktor: ca. 100
[1]; in Äthanol bei Zimmertemperatur
  Löslichkeitssteigerung um einen Faktor: ca. 100

## CC(C)(C)c1ccc(N2C(=O)c3ccc4c5ccc6c7c(ccc(c8ccc(c3c48)C2=O)c75)C(=O)N(c2ccc(C(C)(C)C)cc2)C6=O)cc1 [Beispiel 4, N,N'-Di-(4-tert.-butylphenyl)-perylen-3,4,9,10-tetra-carbonsäurediimid]
[2]; Dimethylformamid (DMF)
  Fluoreszenzquantenausbeute (absolut) η: 0,88

## O=C1c2ccc3c4ccc5c6c(ccc(c7ccc(c2c37)C(=O)N1c1ccccc1)c64)C(=O)N(c1ccccc1)C5=O [III, reference compound]
[1]; in organischen Lösungsmitteln
  Löslichkeit: sehr geringe

## Tetra-tert.-butylrubicen
[1]; solvent not restated (preceding sentence: Äthanol und n-Hexan bei Zimmertemperatur), relative to Rubicen
  erhöhte die Löslichkeit um einen Faktor: ca. 10

## CC(C)(C)c1ccccc1N1C(=O)c2ccc3c4ccc5c6c(ccc(c7ccc(c2c37)C1=O)c64)C(=O)N(c1ccccc1C(C)(C)C)C5=O [Beispiel 3, N,N'-Di-(2-tert.-butyl)-perylen-3,4,9,10-tetracarbonsäure-diimid]
[2]; Chloroform
  Fluoreszenzquantenausbeute (absolut) η: 1,0
[2]; Dimethylformamid (DMF)
  Fluoreszenzquantenausbeute (absolut) η: 0,94

— patent EP0039085A1, “Process for increasing the solubility of aromatic systems” (Langhals, Heinz, Dr., priority 1980, dated 1981)
